In ChEMBL document CHEMBL4052677, “A small-molecule screen identifies the antitrypanosomal agent suramin and analogues NF023 and NF449 as inhibitors of STAT5a/b” (Bioorg Med Chem Lett, 2017) one finds IC50 and inhibition data, which are given here for three molecules.

In general, IC50 refers to the point on the concentration scale where inhibition reaches its midpoint. A high value points to weaker potency in that assay.

Active and inactive are the calls of the source. The calls are words filed in the database; no cut-off is given here.

The target in experiment [1] is T1, Signal transducer and activator of transcription 1-alpha/beta (Homo sapiens, UniProt P42224).
T1 sequence (P42224 whole entry): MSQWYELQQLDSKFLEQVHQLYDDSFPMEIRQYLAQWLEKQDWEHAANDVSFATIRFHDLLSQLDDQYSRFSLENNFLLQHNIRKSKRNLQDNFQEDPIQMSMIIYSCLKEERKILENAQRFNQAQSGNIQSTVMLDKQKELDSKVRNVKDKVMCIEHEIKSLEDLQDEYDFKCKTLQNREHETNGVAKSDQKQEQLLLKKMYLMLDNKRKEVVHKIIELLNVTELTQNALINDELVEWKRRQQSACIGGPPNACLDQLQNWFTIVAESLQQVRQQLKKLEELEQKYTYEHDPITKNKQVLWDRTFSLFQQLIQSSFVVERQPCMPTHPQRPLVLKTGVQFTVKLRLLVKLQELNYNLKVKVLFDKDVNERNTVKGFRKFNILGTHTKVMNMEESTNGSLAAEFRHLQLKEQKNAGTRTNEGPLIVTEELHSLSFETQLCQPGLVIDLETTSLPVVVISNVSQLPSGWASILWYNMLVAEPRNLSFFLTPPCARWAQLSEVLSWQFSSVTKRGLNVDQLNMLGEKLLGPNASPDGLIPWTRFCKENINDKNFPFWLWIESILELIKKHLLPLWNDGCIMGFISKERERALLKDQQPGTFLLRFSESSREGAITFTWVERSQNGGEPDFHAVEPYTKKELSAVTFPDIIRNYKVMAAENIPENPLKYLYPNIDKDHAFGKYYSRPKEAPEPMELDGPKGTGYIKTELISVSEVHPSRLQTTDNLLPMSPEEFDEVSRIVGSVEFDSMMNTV
As to the kind of experiment: Inhibition of 5-carboxyfluorescein-GpYDKPHVL-OH binding to STAT1 (unknown origin) pre-incubated for 1 hr before fluorescent-labelled peptide addition by fluorescence polarization assay. (In general: In fluorescence polarisation assays a small probe gives low polarisation when free and higher when bound to something large.)

In experiment [2] the target is T2, Signal transducer and activator of transcription 5A (Homo sapiens) (UniProt P42229).
T2 sequence (whole entry): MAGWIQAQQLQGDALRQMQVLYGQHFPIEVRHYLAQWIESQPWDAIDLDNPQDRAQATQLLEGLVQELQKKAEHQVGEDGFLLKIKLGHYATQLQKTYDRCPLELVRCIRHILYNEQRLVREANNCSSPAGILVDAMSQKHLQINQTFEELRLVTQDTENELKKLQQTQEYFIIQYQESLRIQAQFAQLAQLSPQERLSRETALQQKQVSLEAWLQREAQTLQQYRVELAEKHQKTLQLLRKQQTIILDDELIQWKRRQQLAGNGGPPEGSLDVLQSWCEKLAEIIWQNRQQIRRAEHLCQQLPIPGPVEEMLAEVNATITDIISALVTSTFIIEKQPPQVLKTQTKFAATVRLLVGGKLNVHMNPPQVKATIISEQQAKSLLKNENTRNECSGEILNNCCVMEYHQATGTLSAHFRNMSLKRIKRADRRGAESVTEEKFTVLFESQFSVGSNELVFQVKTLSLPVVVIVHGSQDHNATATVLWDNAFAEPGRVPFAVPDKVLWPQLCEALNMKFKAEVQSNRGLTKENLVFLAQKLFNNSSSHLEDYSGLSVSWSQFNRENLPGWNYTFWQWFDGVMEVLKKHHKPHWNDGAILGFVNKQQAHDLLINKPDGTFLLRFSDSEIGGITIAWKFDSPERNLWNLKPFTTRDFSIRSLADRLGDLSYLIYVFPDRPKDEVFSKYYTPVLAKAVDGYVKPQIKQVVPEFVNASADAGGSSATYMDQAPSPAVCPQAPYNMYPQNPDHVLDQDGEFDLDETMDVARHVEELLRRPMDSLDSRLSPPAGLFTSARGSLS
As to the kind of experiment: Inhibition of 5-carboxyfluorescein-GpYLVLDKW-OH binding to C-terminal 6x-His-tagged and an N-terminal maltose-binding protein-tagged STAT5A SH2 domain (137 to 507 residues) (unknown origin) expressed in Escherichia coli Rosetta BL21 DE3 at 50 uM pre-incubated for 1 hr before fluorescent-labelled peptide addition by fluorescence polarization assay.

The target of experiment [3] is Signal transducer and activator of transcription 3 (Mus musculus, UniProt P42227). Briefly: Inhibition of 5-carboxyfluorescein-GpYLPQTV-NH2 binding to mouse STAT3 (127 to 722 residues) expressed in Escherichia coli Rosetta BL21 DE3 pre-incubated for 1 hr before fluorescent-labelled peptide addition by fluorescence polarization assay.
Sequence of Signal transducer and activator of transcription 3 (P42227 whole entry, the tested form may be a part): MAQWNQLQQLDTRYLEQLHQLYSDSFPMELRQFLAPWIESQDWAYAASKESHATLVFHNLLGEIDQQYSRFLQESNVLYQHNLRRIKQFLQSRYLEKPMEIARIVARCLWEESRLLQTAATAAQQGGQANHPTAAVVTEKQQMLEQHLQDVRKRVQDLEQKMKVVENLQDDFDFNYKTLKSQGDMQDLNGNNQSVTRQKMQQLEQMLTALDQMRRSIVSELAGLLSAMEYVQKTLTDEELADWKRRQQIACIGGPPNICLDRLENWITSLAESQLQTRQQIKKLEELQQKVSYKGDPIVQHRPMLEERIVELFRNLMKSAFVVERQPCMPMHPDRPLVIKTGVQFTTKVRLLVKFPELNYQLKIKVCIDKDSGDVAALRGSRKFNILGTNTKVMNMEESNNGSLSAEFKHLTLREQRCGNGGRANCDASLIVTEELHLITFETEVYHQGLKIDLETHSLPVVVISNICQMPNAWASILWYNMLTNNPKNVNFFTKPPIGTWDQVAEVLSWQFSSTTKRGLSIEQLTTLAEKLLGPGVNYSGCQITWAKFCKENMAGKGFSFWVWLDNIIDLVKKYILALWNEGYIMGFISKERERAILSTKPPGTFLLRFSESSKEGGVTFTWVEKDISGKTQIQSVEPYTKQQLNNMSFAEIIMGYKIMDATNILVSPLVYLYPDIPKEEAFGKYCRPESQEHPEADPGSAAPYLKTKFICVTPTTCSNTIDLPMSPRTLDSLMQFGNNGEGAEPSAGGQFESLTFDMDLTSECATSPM
Experiment [4] deals with T3, Signal transducer and activator of transcription 5A (Homo sapiens, UniProt P42229).
T3 sequence (P42229 whole entry): T2 sequence (whole entry)
As to the kind of experiment: Inhibition of 5-carboxyfluorescein-GpYLVLDKW-OH binding to C-terminal 6x-His-tagged and an N-terminal maltose-binding protein-tagged STAT5A SH2 domain (137 to 507 residues) (unknown origin) expressed in Escherichia coli Rosetta BL21 DE3 pre-incubated for 1 hr before fluorescent-labelled peptide addition by fluorescence polarization assay.

The target of experiment [5] is T4, Signal transducer and activator of transcription 5B (Homo sapiens, UniProt P51692).
T4 sequence (P51692 whole entry): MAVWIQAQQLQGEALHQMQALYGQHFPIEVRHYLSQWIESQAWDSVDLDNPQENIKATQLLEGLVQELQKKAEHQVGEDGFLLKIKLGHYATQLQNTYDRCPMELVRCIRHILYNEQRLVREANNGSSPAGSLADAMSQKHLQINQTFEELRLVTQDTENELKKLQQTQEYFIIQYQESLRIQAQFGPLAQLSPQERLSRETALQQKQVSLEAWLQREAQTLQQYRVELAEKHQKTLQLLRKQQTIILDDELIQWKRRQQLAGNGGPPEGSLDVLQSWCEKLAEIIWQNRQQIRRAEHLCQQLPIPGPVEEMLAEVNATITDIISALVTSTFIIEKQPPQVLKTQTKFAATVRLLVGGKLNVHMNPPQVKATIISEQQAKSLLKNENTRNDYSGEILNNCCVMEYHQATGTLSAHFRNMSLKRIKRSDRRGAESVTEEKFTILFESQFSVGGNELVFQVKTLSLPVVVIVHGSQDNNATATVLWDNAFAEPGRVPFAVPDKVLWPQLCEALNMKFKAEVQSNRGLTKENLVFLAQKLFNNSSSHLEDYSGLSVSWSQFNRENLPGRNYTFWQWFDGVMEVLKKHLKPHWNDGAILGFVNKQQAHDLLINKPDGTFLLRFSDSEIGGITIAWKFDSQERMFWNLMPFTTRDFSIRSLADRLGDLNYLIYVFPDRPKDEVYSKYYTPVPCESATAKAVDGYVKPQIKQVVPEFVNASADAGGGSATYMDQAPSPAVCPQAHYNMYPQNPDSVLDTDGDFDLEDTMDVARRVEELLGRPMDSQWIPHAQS
As to the kind of experiment: Inhibition of 5-carboxyfluorescein-GpYLVLDKW-OH binding to STAT5B SH2 domain (unknown origin) pre-incubated for 1 hr before fluorescent-labelled peptide addition by fluorescence polarization assay.

Consider `O=C(Nc1cccc(C(=O)Nc2ccc(S(=O)(=O)O)c3cc(S(=O)(=O)O)cc(S(=O)(=O)O)c23)c1)Nc1cccc(C(=O)Nc2ccc(S(=O)(=O)O)c3cc(S(=O)(=O)O)cc(S(=O)(=O)O)c23)c1`, for which the IC50 in experiment [1] was 33.2 µM; in experiment [3], greater than 100 µM; in experiment [4] it was 8.8 µM; in experiment [5], 12.7 µM. The inhibition entry in experiment [2] is “Active”.
In the case of `O=C(Nc1cc(C(=O)Nc2ccc(S(=O)(=O)O)cc2S(=O)(=O)O)cc(C(=O)Nc2ccc(S(=O)(=O)O)cc2S(=O)(=O)O)c1)Nc1cc(C(=O)Nc2ccc(S(=O)(=O)O)cc2S(=O)(=O)O)cc(C(=O)Nc2ccc(S(=O)(=O)O)cc2S(=O)(=O)O)c1`, the IC50 in experiment [1] is 7.9 µM; in experiment [3] it was greater than 100 µM; in experiment [4], 1.4 µM; in experiment [5] it was 2.5 µM. Further, the inhibition result in experiment [2] is “Active”.
For `Cc1ccc(C(=O)Nc2ccc(S(=O)(=O)O)c3cc(S(=O)(=O)O)cc(S(=O)(=O)O)c23)cc1NC(=O)c1cccc(NC(=O)Nc2cccc(C(=O)Nc3cc(C(=O)Nc4ccc(S(=O)(=O)O)c5cc(S(=O)(=O)O)cc(S(=O)(=O)O)c45)ccc3C)c2)c1` [SURAMIN HEXASODIUM], the IC50 in experiment [1] was 9.1 µM; in experiment [3], greater than 100 µM; in experiment [4], 9.4 µM; in experiment [5] it was 10.4 µM. Further, the inhibition entry in experiment [2] was “Active”.
